Assay results: US20240287028A1, “HERBICIDAL PHENYLURACILS” (BASF SE, priority 2021, published 2024)

How the values were obtained:
Test in all cases: greenhouse herbicidal test, post-emergence treatment
Type in all cases: in vivo
[1] = tested on: Setaria faberi; settings: scale 0 to 100
Text: (§1) The culture containers used were plastic flowerpots containing loamy sand with approximately 3.0% of humus as the substrate. The seeds of the test plants were sown separately for each species.
(§2) For the pre-emergence treatment, the active ingredients, which had been suspended or emulsified in water, were applied directly after sowing by means of finely distributing nozzles. The containers were irrigated gently to promote germination and growth and subsequently covered with transparent plastic hoods until the test plants had rooted. This cover caused uniform germination of the test plants, unless this had been impaired by the active ingredients. For the post-emergence treatment, the test plants were first grown to a height of 3 to 15 cm, depending on the plant habit, and only then treated with the active ingredients which had been suspended or emulsified in water. For this purpose, the test plants were either sown directly and grown in the same containers, or they were first grown separately as seedlings and transplanted into the test containers a few days prior to treatment.
(§3) Depending on the species, the test plants were kept at 10-25° C. or 20-35° C., respectively. The test period extended over 2 to 3 weeks. During this time, the test plants were tended, and their response to the individual treatments was evaluated.
(§4) Evaluation was carried out using a scale from 0 to 100. 100 means no emergence of the test plants, or complete destruction of at least the aerial moieties, and 0 means no damage, or normal course of growth. A good herbicidal activity is given at values of at least 70 and a very good herbicidal activity is given at values of at least 85.

[2] = tested on: Erigeron canadensis; settings: application rate 4 g/ha, scale 0 to 100
Text: as §1, §2, §3, §4

[3] = tested on: Digitaria insularis; settings: scale 0 to 100
Text: as §1, §2, §3, §4

| SMILES | damages, unwanted plants SETFA ([1]; application rate 1 g/ha) | damages, unwanted plants SETFA ([1]; application rate 2 g/ha) | damages, unwanted plants SETFA ([1]; application rate 4 g/ha) | damages, unwanted plants ERICA [2] | damages, unwanted plants TRCIN ([3]; application rate 2 g/ha) | damages, unwanted plants TRCIN ([3]; application rate 4 g/ha) |
| --- | --- | --- | --- | --- | --- | --- |
| CCOC(=O)COc1ncccc1Oc1cc(-n2c(=O)cc(C(C)(F)F)n(C)c2=O)c(F)cc1Cl [Example 1.1, Ethyl 2-[[3-[2-chloro-5-[4-(1,1-difluoroethyl)-3-methyl-2,6-dioxo-pyrimidin-1-yl]-4-fluoro-phenoxy]-2-pyridyl]oxy]acetate] | 80 | 90 | 95 | 100 | 95 | 100 |
| CCOC(=O)COc1ncccc1Oc1cc(-n2c(=O)cc(C(F)(F)F)n(C)c2=O)c(F)cc1Cl [cmpd I-2-8] | 70 | 85 | 90 | 65 | 90 | 90 |
